{"source": "paper PMC11571108", "about": "“Targeting PfCLK3 with Covalent Inhibitors: A Novel Strategy for Malaria Treatment” (Journal of Medicinal Chemistry, 2024)", "key": {"AMPKα1(h)": {"biological_target": "AMPKα1(h) (Homo sapiens, UniProt Q13131)", "experiment": "biochemical"}, "ROCK-I(h)": {"biological_target": "ROCK-I(h) (Homo sapiens, UniProt Q13464)", "experiment": "biochemical", "description": "(§1) Compounds were evaluated using Eurofins Discovery’s KinaseProfiler Diversity Panel of 58 representative kinases. KinaseProfiler is a radiometric assay using [γ-^33P]-ATP to measure the phosphorylation of individual kinase substrates. A representative protocol for Abl is given below. Further details can be found by visiting the Eurofins Discovery Web site.\n(§2) The reaction is initiated by the addition of the Mg/ATP mix. After incubation for 40 min at room temperature, the reaction is stopped by the addition of phosphoric acid to a concentration of 0.5%."}, "mTOR(h)": {"biological_target": "mTOR(h) (Homo sapiens, UniProt P42345)", "experiment": "biochemical", "description": "as §1, §2"}, "MST1(h)": {"biological_target": "MST1(h) (Homo sapiens, UniProt Q13043)", "experiment": "biochemical", "description": "as §1, §2"}, "EphB4(h)": {"biological_target": "EphB4(h) (Homo sapiens, UniProt P54760)", "experiment": "biochemical", "description": "as §1, §2"}, "Mnk2(h)": {"biological_target": "Mnk2(h) (Homo sapiens, UniProt Q9HBH9)", "experiment": "biochemical", "description": "as §1, §2"}, "PKCθ(h)": {"biological_target": "PKCθ(h) (Homo sapiens, UniProt Q04759)", "experiment": "biochemical", "description": "as §1, §2"}, "PKG1α(h)": {"biological_target": "PKG1α(h) (Homo sapiens, UniProt Q13976)", "experiment": "biochemical", "description": "as §1, §2"}, "PRAK(h)": {"biological_target": "PRAK(h) (Homo sapiens, UniProt Q8IW41)", "sequence (Q8IW41 whole entry)": "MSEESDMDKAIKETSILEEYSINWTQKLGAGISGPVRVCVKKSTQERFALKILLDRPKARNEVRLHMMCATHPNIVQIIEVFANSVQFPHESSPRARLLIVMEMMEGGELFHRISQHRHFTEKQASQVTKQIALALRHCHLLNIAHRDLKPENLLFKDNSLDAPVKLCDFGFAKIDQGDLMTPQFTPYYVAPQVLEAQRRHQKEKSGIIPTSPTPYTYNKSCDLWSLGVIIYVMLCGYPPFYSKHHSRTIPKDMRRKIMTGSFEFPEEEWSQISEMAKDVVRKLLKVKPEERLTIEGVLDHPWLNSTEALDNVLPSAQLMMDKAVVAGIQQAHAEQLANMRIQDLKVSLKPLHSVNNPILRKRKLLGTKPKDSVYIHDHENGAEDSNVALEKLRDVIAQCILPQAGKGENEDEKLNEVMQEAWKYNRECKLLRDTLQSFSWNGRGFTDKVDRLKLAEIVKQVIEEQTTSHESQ", "experiment": "biochemical", "description": "as §1, §2"}, "eEF-2K(h)": {"biological_target": "eEF-2K(h) (Homo sapiens, UniProt O00418)", "experiment": "biochemical", "description": "as §1, §2"}, "Rsk1(h)": {"biological_target": "Rsk1(h) (Homo sapiens, UniProt Q15418)", "sequence (Q15418 whole entry)": "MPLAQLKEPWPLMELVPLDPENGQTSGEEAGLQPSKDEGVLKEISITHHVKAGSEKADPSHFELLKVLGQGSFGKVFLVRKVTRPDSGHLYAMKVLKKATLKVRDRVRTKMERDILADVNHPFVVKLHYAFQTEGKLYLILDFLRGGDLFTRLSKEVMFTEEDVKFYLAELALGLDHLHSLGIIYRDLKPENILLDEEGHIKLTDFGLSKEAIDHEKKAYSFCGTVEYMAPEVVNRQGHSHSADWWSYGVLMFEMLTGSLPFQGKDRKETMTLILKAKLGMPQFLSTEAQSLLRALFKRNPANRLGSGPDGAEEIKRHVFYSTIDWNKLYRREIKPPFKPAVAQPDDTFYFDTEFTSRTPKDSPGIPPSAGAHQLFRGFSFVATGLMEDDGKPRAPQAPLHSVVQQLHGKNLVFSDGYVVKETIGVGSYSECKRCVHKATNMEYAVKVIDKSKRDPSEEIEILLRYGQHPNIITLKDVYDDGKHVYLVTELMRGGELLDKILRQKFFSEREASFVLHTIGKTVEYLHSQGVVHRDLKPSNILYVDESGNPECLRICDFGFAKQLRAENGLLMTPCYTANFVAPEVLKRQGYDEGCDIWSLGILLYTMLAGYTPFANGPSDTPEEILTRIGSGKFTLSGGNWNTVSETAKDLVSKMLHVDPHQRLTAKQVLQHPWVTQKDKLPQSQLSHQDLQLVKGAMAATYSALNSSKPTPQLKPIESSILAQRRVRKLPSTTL", "experiment": "biochemical", "description": "as §1, §2"}, "PKCα(h)": {"biological_target": "PKCα(h) (Homo sapiens, UniProt P17252)", "experiment": "biochemical", "description": "as §1, §2"}, "PI3 Kinase (p120g)(h)": {"biological_target": "PI3 Kinase (p120g)(h) (Homo sapiens, UniProt P48736)", "experiment": "biochemical", "description": "as §1, §2"}, "Fyn(h)": {"biological_target": "Fyn(h) (Homo sapiens, UniProt P06241)", "sequence (P06241 whole entry)": "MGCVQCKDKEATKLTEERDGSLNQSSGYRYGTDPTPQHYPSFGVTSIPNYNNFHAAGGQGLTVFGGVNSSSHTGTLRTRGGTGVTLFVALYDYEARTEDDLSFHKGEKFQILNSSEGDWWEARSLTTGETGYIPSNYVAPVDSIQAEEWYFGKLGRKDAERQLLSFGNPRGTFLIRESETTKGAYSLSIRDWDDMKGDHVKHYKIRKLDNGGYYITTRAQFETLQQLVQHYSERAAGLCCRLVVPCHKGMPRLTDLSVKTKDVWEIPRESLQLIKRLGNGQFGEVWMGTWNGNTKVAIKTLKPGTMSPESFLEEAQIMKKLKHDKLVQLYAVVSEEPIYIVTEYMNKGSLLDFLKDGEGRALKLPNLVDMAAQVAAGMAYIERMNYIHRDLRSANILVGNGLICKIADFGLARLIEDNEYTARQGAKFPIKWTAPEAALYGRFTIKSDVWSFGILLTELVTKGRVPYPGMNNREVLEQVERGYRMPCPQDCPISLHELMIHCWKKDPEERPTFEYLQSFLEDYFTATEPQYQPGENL", "experiment": "biochemical", "description": "as §1, §2"}, "SRPK1(h)": {"biological_target": "SRPK1(h) (Homo sapiens, UniProt Q96SB4)", "sequence (Q96SB4 whole entry)": "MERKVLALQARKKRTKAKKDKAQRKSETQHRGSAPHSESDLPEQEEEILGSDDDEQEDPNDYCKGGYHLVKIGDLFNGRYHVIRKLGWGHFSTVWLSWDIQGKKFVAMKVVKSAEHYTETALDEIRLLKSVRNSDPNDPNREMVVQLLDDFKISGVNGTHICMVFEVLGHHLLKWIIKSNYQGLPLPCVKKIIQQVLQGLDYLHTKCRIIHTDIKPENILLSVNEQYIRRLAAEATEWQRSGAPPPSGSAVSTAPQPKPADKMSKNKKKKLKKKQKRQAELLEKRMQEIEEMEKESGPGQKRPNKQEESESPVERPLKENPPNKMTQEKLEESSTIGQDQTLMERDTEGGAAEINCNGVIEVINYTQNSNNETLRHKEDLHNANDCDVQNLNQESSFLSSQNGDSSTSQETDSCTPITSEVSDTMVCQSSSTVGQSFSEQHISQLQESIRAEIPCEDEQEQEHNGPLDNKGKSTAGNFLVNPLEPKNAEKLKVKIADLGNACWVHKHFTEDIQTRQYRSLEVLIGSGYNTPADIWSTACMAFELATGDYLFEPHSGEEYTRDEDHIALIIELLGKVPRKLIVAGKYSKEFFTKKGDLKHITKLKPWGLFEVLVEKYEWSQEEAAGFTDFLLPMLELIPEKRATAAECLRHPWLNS", "experiment": "biochemical", "description": "as §1, §2"}, "IKKα(h)": {"biological_target": "IKKα(h) (Homo sapiens, UniProt O15111)", "sequence (O15111 whole entry)": "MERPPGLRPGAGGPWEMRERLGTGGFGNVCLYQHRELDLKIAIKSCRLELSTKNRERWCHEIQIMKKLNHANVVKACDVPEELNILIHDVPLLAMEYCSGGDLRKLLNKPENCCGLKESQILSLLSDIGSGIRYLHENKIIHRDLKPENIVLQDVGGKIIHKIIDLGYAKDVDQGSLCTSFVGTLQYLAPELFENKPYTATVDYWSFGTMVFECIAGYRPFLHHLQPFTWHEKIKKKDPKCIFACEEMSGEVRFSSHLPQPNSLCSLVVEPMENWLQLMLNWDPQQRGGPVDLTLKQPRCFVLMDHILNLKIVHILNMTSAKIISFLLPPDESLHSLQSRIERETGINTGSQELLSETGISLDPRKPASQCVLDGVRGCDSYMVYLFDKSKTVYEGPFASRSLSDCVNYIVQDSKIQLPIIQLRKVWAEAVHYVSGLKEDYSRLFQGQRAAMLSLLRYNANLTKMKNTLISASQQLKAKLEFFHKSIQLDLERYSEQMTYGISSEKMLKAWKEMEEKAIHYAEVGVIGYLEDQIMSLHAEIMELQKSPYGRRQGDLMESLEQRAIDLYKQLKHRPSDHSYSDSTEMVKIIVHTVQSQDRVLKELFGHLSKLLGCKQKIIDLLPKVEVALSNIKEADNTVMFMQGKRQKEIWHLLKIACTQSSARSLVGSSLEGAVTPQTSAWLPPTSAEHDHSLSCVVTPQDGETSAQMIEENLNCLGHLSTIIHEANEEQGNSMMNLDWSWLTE", "experiment": "biochemical", "description": "as §1, §2"}, "SAPK2a(h)": {"biological_target": "SAPK2a(h) (Homo sapiens, UniProt Q16539)", "sequence (Q16539 whole entry)": "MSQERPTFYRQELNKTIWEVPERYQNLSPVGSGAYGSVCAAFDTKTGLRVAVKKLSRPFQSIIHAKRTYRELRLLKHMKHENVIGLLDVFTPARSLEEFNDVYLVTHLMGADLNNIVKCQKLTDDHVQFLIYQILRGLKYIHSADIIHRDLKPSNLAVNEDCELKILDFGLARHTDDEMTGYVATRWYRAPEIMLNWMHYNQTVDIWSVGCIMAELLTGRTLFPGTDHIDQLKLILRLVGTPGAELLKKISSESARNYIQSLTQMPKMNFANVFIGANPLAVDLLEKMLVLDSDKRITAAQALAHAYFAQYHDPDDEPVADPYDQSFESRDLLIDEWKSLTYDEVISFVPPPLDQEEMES", "experiment": "biochemical", "description": "as §1, §2"}, "EGFR(h)": {"biological_target": "EGFR(h) (Homo sapiens, UniProt P00533)", "experiment": "biochemical", "description": "as §1, §2"}, "PDGFRβ(h)": {"biological_target": "PDGFRβ(h) (Homo sapiens, UniProt P09619)", "experiment": "biochemical", "description": "as §1, §2"}, "Plk3(h)": {"biological_target": "Plk3(h) (Homo sapiens, UniProt Q9H4B4)", "experiment": "biochemical", "description": "as §1, §2"}, "LOK(h)": {"biological_target": "LOK(h) (Homo sapiens, UniProt O94804)", "experiment": "biochemical", "description": "as §1, §2"}, "Rse(h)": {"biological_target": "Rse(h) (Homo sapiens, UniProt Q06418)", "experiment": "biochemical", "description": "as §1, §2"}, "MEK1(h)": {"biological_target": "MEK1(h) (Homo sapiens, UniProt Q02750)", "sequence (Q02750 whole entry)": "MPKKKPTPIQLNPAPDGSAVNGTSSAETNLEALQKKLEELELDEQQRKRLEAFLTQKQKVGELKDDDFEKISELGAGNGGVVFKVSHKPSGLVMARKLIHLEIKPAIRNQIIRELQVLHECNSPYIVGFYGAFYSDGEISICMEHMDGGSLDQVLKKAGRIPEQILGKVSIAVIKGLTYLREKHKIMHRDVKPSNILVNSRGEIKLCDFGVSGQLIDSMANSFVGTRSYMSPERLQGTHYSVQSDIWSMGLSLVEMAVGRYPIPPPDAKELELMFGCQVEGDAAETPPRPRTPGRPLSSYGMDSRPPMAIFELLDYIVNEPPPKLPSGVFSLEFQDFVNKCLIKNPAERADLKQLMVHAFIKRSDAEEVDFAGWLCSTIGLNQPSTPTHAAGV", "experiment": "biochemical", "description": "as §1, §2"}, "MAPKAP-K2(h)": {"biological_target": "MAPKAP-K2(h) (Homo sapiens, UniProt P49137)", "experiment": "biochemical", "description": "as §1, §2"}, "NEK2(h)": {"biological_target": "NEK2(h) (Homo sapiens, UniProt P51955)", "sequence (P51955 whole entry)": "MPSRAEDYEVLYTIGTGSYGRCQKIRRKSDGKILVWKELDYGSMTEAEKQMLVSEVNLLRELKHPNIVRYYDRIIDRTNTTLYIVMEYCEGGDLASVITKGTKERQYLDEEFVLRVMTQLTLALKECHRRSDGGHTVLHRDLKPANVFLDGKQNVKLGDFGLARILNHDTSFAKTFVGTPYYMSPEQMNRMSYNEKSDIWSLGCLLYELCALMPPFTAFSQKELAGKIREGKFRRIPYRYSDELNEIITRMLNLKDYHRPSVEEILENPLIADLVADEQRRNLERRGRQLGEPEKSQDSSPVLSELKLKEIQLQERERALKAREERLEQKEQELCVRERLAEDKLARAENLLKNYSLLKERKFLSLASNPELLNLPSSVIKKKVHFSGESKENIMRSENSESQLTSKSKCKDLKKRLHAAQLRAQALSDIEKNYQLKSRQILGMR", "experiment": "biochemical", "description": "as §1, §2"}, "TAK1(h)": {"biological_target": "TAK1(h) (Homo sapiens, UniProt O43318)", "experiment": "biochemical", "description": "as §1, §2"}, "IRAK4(h)": {"biological_target": "IRAK4(h) (Homo sapiens, UniProt Q9NWZ3)", "sequence (Q9NWZ3 whole entry)": "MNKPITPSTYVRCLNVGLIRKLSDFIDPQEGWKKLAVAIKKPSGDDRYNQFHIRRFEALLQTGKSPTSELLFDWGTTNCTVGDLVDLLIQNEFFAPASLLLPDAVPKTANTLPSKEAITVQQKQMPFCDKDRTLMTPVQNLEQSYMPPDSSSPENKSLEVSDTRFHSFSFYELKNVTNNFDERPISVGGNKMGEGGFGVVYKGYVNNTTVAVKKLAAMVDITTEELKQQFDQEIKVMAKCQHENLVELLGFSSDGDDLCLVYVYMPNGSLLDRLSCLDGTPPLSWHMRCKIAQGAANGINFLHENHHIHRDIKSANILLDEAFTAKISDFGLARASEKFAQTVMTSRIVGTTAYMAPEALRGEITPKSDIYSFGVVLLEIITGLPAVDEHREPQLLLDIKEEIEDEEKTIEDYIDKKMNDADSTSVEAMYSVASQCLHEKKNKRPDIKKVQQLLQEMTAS", "experiment": "biochemical", "description": "as §1, §2"}, "PKA(h)": {"biological_target": "PKA(h) (Homo sapiens, UniProt P17612)", "experiment": "biochemical", "description": "as §1, §2"}, "Microsomal stability": {"experiment": "Microsomal stability", "assay_type": "in vitro ADME", "conditions": "human, liver microsomes, 0.5 mg/mL microsomes, 37 °C", "description": "Peak areas were determined from extracted ion chromatograms."}, "physchem": {"experiment": "physchem", "conditions": "pH 7.5, GSH t1/2, 37 °C, 10:1 ratio GSH:compound"}, "full-length PfCLK3": {"test_system": "full-length PfCLK3", "conditions": "PfCLK3 5 μg; triplicate wells", "description": "To a 384-well thermal shift plate, 5 μL protein thermal shift buffer (Thermo Fisher Scientific), 5 μg full length PfCLK3 (4.17 μL, 1.2 mg/mL), 8.13 μL thermal shift buffer (Thermo Fisher Scientific), 0.2 μL 10 mM compound or vehicle (DMSO), and 2.5 μL protein thermal shift dye (Thermo Fisher Scientific) were added in triplicate. […] 5 Qpcr (Thermo Fisher Scientific). Fluorescence was recorded as proteins unfolded. The Boltzmann distribution was calculated and Tm obtained using Protein Thermal Shift Software v1.4 (Thermo Fisher Scientific)."}, "[1]": {"biological_target": "T1, PI3 Kinase (p110b/p85a)(h) (Homo sapiens, UniProt P42338)", "T1 construct": "purchased Eurofins Discovery KinaseProfiler", "experiment": "KinaseProfiler radiometric assay", "assay_type": "biochemical", "conditions": "1 µM compound", "from_the_text": "(§3) A representative protocol for Abl is given below."}, "[2]": {"biological_target": "T2, PI3 Kinase (p110a/p85a)(h) (Homo sapiens, UniProt P42336)", "T2 construct": "purchased Eurofins Discovery KinaseProfiler", "experiment": "KinaseProfiler radiometric assay", "assay_type": "biochemical", "conditions": "1 µM compound", "from_the_text": "as §3"}, "[3]": {"biological_target": "T3, PI3 Kinase (p110d/p85a)(h) (Homo sapiens, UniProt O00329)", "T3 construct": "purchased Eurofins Discovery KinaseProfiler", "experiment": "KinaseProfiler radiometric assay", "assay_type": "biochemical", "conditions": "1 µM compound", "from_the_text": "as §3"}, "CK1γ1(h)": {"biological_target": "CK1γ1(h) (Homo sapiens, UniProt Q9HCP0)", "experiment": "biochemical"}, "CDK1/cyclinB(h)": {"biological_target": "CDK1/cyclinB(h) (Homo sapiens, UniProt P06493)", "experiment": "biochemical"}}, "note": "Where “and” joins values, the source holds several entries; their conditions need not be identical. Identical values can stand only once."}
{"molecule": "CCN(CC)Cc1ccc(OC)c(-c2cc3c(-c4ccc(C(=O)O)c(C(C)C)c4)ccnc3[nH]2)c1", "note": "[Compound 1, TCMDC-135051]", "values": [{"measurement": "remaining activity at 1 µM", "setting": "AMPKα1(h)", "value": 46, "unit": "%"}, {"measurement": "remaining activity at 1 µM", "setting": "ROCK-I(h)", "value": 117, "unit": "%"}, {"measurement": "remaining activity at 1 µM", "setting": "mTOR(h)", "value": 100, "unit": "%"}, {"measurement": "remaining activity at 1 µM", "setting": "MST1(h)", "value": 84, "unit": "%"}, {"measurement": "remaining activity at 1 µM", "setting": "EphB4(h)", "value": 104, "unit": "%"}, {"measurement": "remaining activity at 1 µM", "setting": "Mnk2(h)", "value": 38, "unit": "%"}, {"measurement": "remaining activity at 1 µM", "setting": "PKCθ(h)", "value": 108, "unit": "%"}, {"measurement": "remaining activity at 1 µM", "setting": "PKG1α(h)", "value": 105, "unit": "%"}, {"measurement": "remaining activity at 1 µM", "setting": "PRAK(h)", "value": 74, "unit": "%"}, {"measurement": "remaining activity at 1 µM", "setting": "eEF-2K(h)", "value": 100, "unit": "%"}, {"measurement": "remaining activity at 1 µM", "setting": "Rsk1(h)", "value": 105, "unit": "%"}, {"measurement": "remaining activity at 1 µM", "setting": "PKCα(h)", "value": 73, "unit": "%"}, {"measurement": "remaining activity at 1 µM", "setting": "PI3 Kinase (p120g)(h)", "value": 96, "unit": "%"}, {"measurement": "remaining activity at 1 µM", "setting": "Fyn(h)", "value": 49, "unit": "%"}, {"measurement": "remaining activity at 1 µM", "setting": "SRPK1(h)", "value": 105, "unit": "%"}, {"measurement": "remaining activity at 1 µM", "setting": "IKKα(h)", "value": 93, "unit": "%"}, {"measurement": "remaining activity at 1 µM", "setting": "SAPK2a(h)", "value": 105, "unit": "%"}, {"measurement": "remaining activity at 1 µM", "setting": "EGFR(h)", "value": 95, "unit": "%"}, {"measurement": "remaining activity at 1 µM", "setting": "PDGFRβ(h)", "value": 94, "unit": "%"}, {"measurement": "remaining activity at 1 µM", "setting": "Plk3(h)", "value": 100, "unit": "%"}, {"measurement": "remaining activity at 1 µM", "setting": "LOK(h)", "value": 37, "unit": "%"}, {"measurement": "remaining activity at 1 µM", "setting": "Rse(h)", "value": 109, "unit": "%"}, {"measurement": "remaining activity at 1 µM", "setting": "MEK1(h)", "value": 100, "unit": "%"}, {"measurement": "remaining activity at 1 µM", "setting": "MAPKAP-K2(h)", "value": 94, "unit": "%"}, {"measurement": "remaining activity at 1 µM", "setting": "NEK2(h)", "value": 105, "unit": "%"}, {"measurement": "remaining activity at 1 µM", "setting": "TAK1(h)", "value": 45, "unit": "%"}, {"measurement": "remaining activity at 1 µM", "setting": "IRAK4(h)", "value": 27, "unit": "%"}, {"measurement": "remaining activity at 1 µM", "setting": "PKA(h)", "value": 101, "unit": "%"}, {"measurement": "microsomal CLint at 1 μM", "setting": "Microsomal stability; read-out: HLM CLint (intrinsic clearance)", "value": "< 7.5", "unit": "µL/min/mg"}, {"measurement": "half-life at 1 μM", "setting": "Microsomal stability; read-out: HLM t1/2", "value": "> 3.07", "unit": "h"}, {"measurement": "half-life at 1 mM", "setting": "physchem", "value": "> 72", "unit": "h"}, {"measurement": "Tm B", "setting": "full-length PfCLK3", "value": "66.66 and 66.67 and 66.65"}, {"measurement": "remaining activity at 1 µM", "setting": "[1]", "value": 99, "unit": "%"}, {"measurement": "remaining activity at 1 µM", "setting": "[2]", "value": 100, "unit": "%"}, {"measurement": "remaining activity at 1 µM", "setting": "[3]", "value": 73, "unit": "%"}, {"measurement": "remaining activity at 1 µM", "setting": "CK1γ1(h)", "value": 85, "unit": "%"}, {"measurement": "remaining activity at 1 µM", "setting": "CDK1/cyclinB(h)", "value": 15, "unit": "%"}]}
